The text below walks through data of US20220396565A1 (Hoffmann-La Roche Inc., priority 2020, published 2022).

Structures can show the parent of a compound that is named as a salt. Where two headings read alike, the source gives them in different places.

The subject of the experiment is Acinetobacter baumannii ATCC17961. In words: Antimicrobial susceptibility testing: 90% growth inhibitory concentration (IC90) determination, Iso-Sensitest broth. It is filed as cell-based. To be noted: Acinetobacter baumannii. An outline of the steps: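 Growth at OD600 was monitored every 20 min for 16 h at 35±2 °C, with bacteria inoculated at ~5×10^(5) CFU/ml into Iso-Sensitest medium. Compounds were tested as 10-point twofold dilutions (e.g. 10–0.02 μM final). The 90% inhibitory concentration comes from the log-phase growth.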

[1] abbreviates: ATCC17961, 90% growth inhibitory concentration, Acinetobacter baumannii ATCC17961, Iso-Sensitest broth, read-out: ATCC 17961 IC90.

As for `COc1ccc(-c2cnc(C(=O)Nc3ccc(C(=O)N4CCN(C(=O)[C@H]5CC[C@@H](N)C5)CC4)c(Cl)c3)n2C)c(F)c1F` [Example 108, N-[4-[4-[(1S,3R)-3-aminocyclopentane-carbonyl]piperazine-1-carbonyl]-3-chloro-phenyl]-5-(2,3-difluoro-4-methoxy-phenyl)-1-methyl-imidazole-2-carboxamide; formate], the IC90 under setting [1] worked out at 40 nM.

On to `COc1ccc(-c2cnc(C(=O)Nc3ccc(C(=O)N4CC(OCCN)C4)c(Cl)c3)n2C)c(F)c1F` [Example 18, N-[4-[3-(2-aminoethoxy)azetidine-1-carbonyl]-3-chloro-phenyl]-5-(2,3-difluoro-4-methoxy-phenyl)-1-methyl-imidazole-2-carboxamide formate], for which the IC90 under setting [1] was found to be 70 nM.

As for `Cn1c(-c2ccc(OC(F)F)c(F)c2F)cnc1C(=O)Nc1ccc(C(=O)N2CCN(C(=O)C3CCN(CC(N)=O)CC3)CC2)c(Cl)c1` [Example 289], under setting [1], the IC90 amounted to 70 nM.

With `COc1ccc(-c2cnc(C(=O)Nc3ccc(C(=O)N4CCN(C(=O)CN)CC4)c(Cl)c3)n2C)c(F)c1F` [Example 149, N-[4-[4-(2-aminoacetyl)piperazine-1-carbonyl]-3-chloro-phenyl]-5-(2,3-difluoro-4 methoxy-phenyl)-1-methyl-imidazole-2-carboxamide formate], under setting [1], the IC90 was found to be 30 nM.

As to `Cn1c(-c2ccc(F)c(C#N)c2F)cnc1C(=O)Nc1ccc(C(=O)N2CCN(C(=O)C3CCNCC3)CC2)c(Cl)c1` [Example 193, N-[3-chloro-4-[4-(piperidine-4-carbonyl)piperazine-1-carbonyl]phenyl]-5-(3-cyano-2,4-difluoro-phenyl)-1-methyl-imidazole-2-carboxamide formate], the IC90 under setting [1] was 2590 nM.

In the case of `Cn1c(-c2ccc(OC(F)F)c(F)c2Cl)cnc1C(=O)Nc1ccc(C(=O)N2CCN(C(=O)CC3(O)CCNCC3)CC2)c(Cl)c1` [Example 172, 5-[2-chloro-4-(difluoromethoxy)-3-fluoro-phenyl]-N-[3-chloro-4-[4-[2-(4-hydroxy-4-piperidyl)acetyl]piperazine-1-carbonyl]phenyl]-1-methyl-imidazole-2-carboxamide formate], the IC90 under setting [1] stood at 50 nM.

As to `CN(C)c1ccc(-c2cnc(C(=O)Nc3ccc(C(=O)N4CCN(C(=O)C5CCNCC5)CC4)c(Cl)c3)n2C)c(F)c1F` [Example 262, N-[3-chloro-4-[4-(piperidine-4-carbonyl)piperazine-1-carbonyl]phenyl]-5-[4-(dimethylamino)-2,3-difluoro-phenyl]-1-methyl-imidazole-2-carboxamide formate], the IC90 under setting [1] stood at 70 nM.

On to `COc1ccc(-c2cnc(C(=O)Nc3ccc(C(=O)N4CCN(C(=O)[C@H]5[C@@H]6CNC[C@@H]65)CC4)c(Cl)c3)n2C)c(F)c1F` [Example 184, N-[4-[4-[(1R,5S)-3-azabicyclo[3.1.0]hexane-6-carbonyl]piperazine-1-carbonyl]-3-chloro-phenyl]-5-(2,3-difluoro-4-methoxy-phenyl)-1-methyl-imidazole-2-carboxamide trifluoroacetate], for which, under setting [1], the IC90 came out at 20 nM.

Consider `COc1ccc(-c2cnc(C(=O)Nc3ccc(C(=O)N4C[C@H]5CN(C(=O)CN(C)C)C[C@H]5C4)c(Cl)c3)n2C)c(F)c1F` [Example 190, N-[4-[(3aS,6aR)-2-[2-(dimethylamino)acetyl]-1,3,3a,4,6,6a-hexahydropyrrolo[3,4-c]pyrrole-5-carbonyl]-3-chloro-phenyl]-5-(2,3-difluoro-4-methoxy-phenyl)-1-methyl-imidazole-2-carboxamide formate], for which, under setting [1], the concentration for an effect of 90% (IC90) was found to be 180 nM.

Turning to `COc1ccc(-c2cnc(C(=O)Nc3ccc(C(=O)N4CCC(C(=O)NC5CCNCC5)CC4)c(Cl)c3)n2C)c(F)c1F` [Example 38, 1-[2-chloro-4-[[5-(2,3-difluoro-4-methoxy-phenyl)-1-methyl-imidazole-2-carbonyl]amino]benzoyl]-N-(4-piperidyl)piperidine-4-carboxamide formate], the IC90 under setting [1] amounted to 60 nM.

Turning to `COc1ccc(-c2cnc(C(=O)Nc3ccc(C(=O)N4CCC(OCC5CNC5)CC4)c(Cl)c3)n2C)c(F)c1F` [Example 23, N-[4-[4-(azetidin-3-ylmethoxy)piperidine-1-carbonyl]-3-chloro-phenyl]-5-(2,3-difluoro-4-methoxy-phenyl)-1-methyl-imidazole-2-carboxamide formate], under setting [1], the IC90 came out at 60 nM.

Turning to `COc1ccc(-c2cnc(C(=O)Nc3ccc(C(=O)N4CC5(CC(C(=O)N6CCN[C@@H](CO)C6)C5)C4)c(Cl)c3)n2C)c(F)c1F` [Example 41, N-[3-chloro-4-[6-[(3R)-3-(hydroxymethyl)piperazine-1-carbonyl]-2-azaspiro[3,3]heptane-2-carbonyl]phenyl]-5-(2,3-difluoro-4-methoxy-phenyl)-1-methyl-imidazole-2-carboxamide], under setting [1], the IC90 came to 140 nM.

For the compound `Cn1c(-c2ccc(OCF)c(F)c2F)cnc1C(=O)Nc1ccc(C(=O)N2CCN(C(=O)CC3(O)CNC3)CC2)c(Cl)c1` [Example 160, N-[3-chloro-4-[4-[2-(3-hydroxyazetidin-3-yl)acetyl]piperazine-1-carbonyl]phenyl]-5-[2,3-difluoro-4-(fluoromethoxy)phenyl]-1-methyl-imidazole-2-carboxamide formate], the IC90 under setting [1] was determined as 40 nM.

In the case of `COc1ccc(-c2cnc(C(=O)Nc3ccc(C(=O)N4CCN(C(=O)CC5CCNCC5)CC4)c(Cl)c3)n2C)c(F)c1F` [Example 142, N-[3-chloro-4-[4-[2-(4-piperidyl)acetyl]piperazine-1-carbonyl]phenyl]-5-(2,3-difluoro-4-methoxy-phenyl)-1-methyl-imidazole-2-carboxamide; formic acid], under setting [1], the IC90 amounted to 40 nM.

As for `COc1ccc(-c2cnc(C(=O)Nc3ccc(C(=O)N4CCC(NS(=O)(=O)CCN)CC4)c(Cl)c3)n2C)c(F)c1F` [Example 236, N-[4-[4-(2-aminoethylsulfonylami-no)piperidine-1-carbonyl]-3-chloro-phenyl]-5-(2,3-difluoro-4-methoxy-phenyl)-1-methyl-imidazole-2-carboxamide], the concentration for an effect of 90% (IC90) under setting [1] was determined as 60 nM.

On to `Cn1c(-c2ccc(OCF)c(F)c2F)cnc1C(=O)Nc1ccc(C(=O)N2CCC(C(=O)NC[C@@H]3CCNC3)CC2)c(Cl)c1` [Example 54, 1-[2-chloro-4-[[5-[2,3-difluoro-4-(fluoromethoxy)phenyl]-1-methyl-imidazole-2-carbonyl]amino]benzoyl]-N-[[(3R)-pyrrolidin-3-yl]methyl]piperidine-4-carboxamide formate], for which the IC90 under setting [1] was determined as 40 nM.

With `Cn1c(-c2ccc(OC(F)F)c(F)c2F)cnc1C(=O)Nc1ccc(C(=O)N2CCN(C(=O)CC3(O)CCNCC3)CC2)c(Cl)c1` [Example 223, N-(3-chloro-4-(4-(2-(4-hydroxypiperidin-4-yl)acetyl)piperazine-1-carbonyl)phenyl)-5-(4-(difluoromethoxy)-2,3-difluorophenyl)-1-methyl 1H-imidazole-2-carboxamide formate], the IC90 (ATCC17961, read-out: ATCC 17961 IC90) was found to be 50 nM.

Consider `Cn1c(-c2ccc(OCF)c(F)c2F)cnc1C(=O)Nc1ccc(C(=O)N2CCC(C(=O)N[C@H]3CNC[C@H]3F)CC2)c(Cl)c1` [Example 51, 1-[2-chloro-4-[[5-[2,3-difluoro-4-(fluoromethoxy)phenyl]-1-methyl-imidazole-2-carbonyl]amino]benzoyl]-N-[(3S,4R)-4-fluoropyrrolidin-3-yl]piperidine-4-carboxamide trifluoroacetate], for which the IC90 under setting [1] came to 30 nM.

By IC90 is commonly meant the concentration at which the effect reaches the 90% level.
